These results are taken from patent US20090312423A1, “THERAPEUTIC TREATMENT FOR LUNG CONDITIONS” (Vanderbilt University, priority 2008, published 2009).

For data set [1], the system named is chronically hypoxic piglets. Briefly: In vivo hemodynamics in newborn piglets exposed to 10 days of chronic hypoxia. The text has this: A total of 17 hypoxic and 17 control piglets were studied. Control animals were studied on the day of arrival from the farm at 12 days of age. The hypoxic pigs (2 days old) were placed in a normobaric hypoxic chamber for 10 to 11 days. Normobaric hypoxia was provided using compressed air and nitrogen to create inspired oxygen of 8-11% (PO2 60-72 Torr) and CO2 was maintained at 3-6 Torr by absorption with soda lime. The animals were monitored with daily weights and physical exam twice daily. They were fed ad lib with sow milk replacer from a feeding device in the cage.
Six of the seventeen hypoxic piglets were supplemented with oral L-citrulline starting on the first day of the hypoxic exposure. L-citrulline supplementation was provided at a dose of 0.13-gm/kilogram body weight twice a day using a syringe to deliver the dose orally. If it appeared to study personnel that the piglet had not ingested the majority of a dose, it was repeated. L-citrulline was mixed using a preparation (Sigma Pharmaceuticals, St. Louis, Mo., United States of America, 98% purity) at a concentration of 0.13 grams per milliliter of distilled water and when completely dissolved passing this solution through a 0.20 Micron filter.
In vivo hemodynamics were measured in 6 of the control piglets and all of the hypoxic piglets. […] Pulmonary artery pressure, left ventricular end diastolic pressure, and cardiac output were measured. Cardiac output was measured by a thermodilution technique (model 9520 thermodilution cardiac output computer, Edwards Laboratory, Irvine, Calif., United States of America) using a thermistor in the aortic arch and the left ventricle catheter as an injection port. Cardiac output was measured at end expiration as the mean of three injections of 3 ml of normal saline (0° C.). Exhaled NO was measured as described below. […]
Pulmonary vascular resistance was calculated from the in vivo hemodynamic measurements: (Pulmonary arterial pressure−left ventricular end diastolic pressure)÷(Cardiac output/body weight). […]

Data set [2] is described as follows: Plasma amino acid measurements. It is filed as in vivo, piglets. The note with it: for Plasma Citrulline: mean ± SEM. As to the method:
On the day of hemodynamic measurements and/or lung perfusion study, for control and both L-citrulline treated and untreated chronic hypoxic animals, blood was drawn prior to starting the study and the plasma frozen at -80 degrees for later determination of amino acid levels. For the L-citrulline treated hypoxic animals, the time of obtaining the blood sample was approximately 12 hours after the last dose of L-citrulline so was a trough level. In some of the L-citrulline treated animals (n=3), after blood sampling for a trough level, a dose of L-citrulline was given via nasogastric tube. Following this dose, blood samples were drawn every 30 minutes for 90 minutes (the length of the in vivo studies). All samples were spun, the plasma collected and frozen at -80 degrees for amino acid analysis. Concentrations of plasma citrulline and arginine were determined by amino-acid analysis on protein-free extracts. Amino acids were separated by cation-exchange chromatography using a Hitachi […] amino acid analyzer (Hitachi USA, San Jose, Calif., United States of America). Calibration of the analyzer was performed before testing of piglet samples.

The next data set has as its system nitrite/nitrate (NOx-). Briefly: Isolated lung perfusion, perfusate NOx- measurement. The format is in vivo, piglets. The settings on record: FIG. 6; p=0.04; no difference from normoxic controls. How it is done:
The lungs were isolated and perfused in situ with a Krebs Ringer bicarbonate (KRB) solution containing 5% dextran, mol. wt. 70,000, at 37° C. and ventilated with a normoxic gas mixture (21% O2 and 5% CO2) as previously described. Fike, C. D. et al., J Appl Physiol (2000) 88:1797-1803. The lungs were perfused for 30-60 min until a stable pulmonary arterial pressure was achieved. Perfusate samples (1 ml) were then removed from the left atrial cannula every 10 min for a 60-minute period. The perfusate samples were centrifuged, and the supernatant was stored at −80° C. for future analysis of nitrite/nitrate (NOx^−) concentrations as described below. At the end of the perfusion, the volume of perfusate remaining in the circuit and reservoir was measured. […]
The perfusate NOx^− […] was calculated for each collection time by multiplying the perfusate concentration of NOx^− at that sample collection time by the volume of the system (perfusion circuit+reservoir) at the sample collection time plus the amount of NOx^− removed with all previous samples. The rate of NOx^− production was determined from the slope of a linear regression line fit to the amount of NOx^− in the perfusate versus time for the first 60 minutes of the collection period.

In the next data set the test system is exhaled NO. Briefly: Exhaled nitric oxide measurement in anesthetized piglets. It is filed as in vivo. The note with it: FIG. 5; p-value 0.032; not different from control (p=0.124). As to the method: In vivo hemodynamics were measured in 6 of the control piglets and all of the hypoxic piglets. For these measurements, the animals were weighed and then preanesthetized with Ketamine (15 mg/kg) and Acepromazine (2 mg/kg) intramuscularly. A tracheostomy, venous and arterial catheters, and thermistor were then placed as previously described using intravenous pentobarbital for sedation. Fike, C. D. et al., J Appl Physiol (2000) 88:1797-1803. Pulmonary artery pressure, left ventricular end diastolic pressure, and cardiac output were measured. Cardiac output was measured by a thermodilution technique (model 9520 thermodilution cardiac output computer, Edwards Laboratory, Irvine, Calif., United States of America) using a thermistor in the aortic arch and the left ventricle catheter as an injection port. Cardiac output was measured at end expiration as the mean of three injections of 3 ml of normal saline (0° C.). Exhaled NO was measured as described below. […]
For exhaled NO measurement in anesthetized animals, expiratory gas was sampled two to three times for 3 minute periods each and passed through a chemiluminescence analyzer (model 270B NOA; Sievers, Boulder, Colo., United States of America) to measure NO concentration as previously described. […] Exhaled NO production (nmol/min) was calculated using minute ventilation and the measured exhaled NO concentration.

`NC(=O)NCCC[C@H](N)C(=O)O` [L-citrulline]: in data set [1] (FIG. 3, p-value of 0.01, not different from normoxic controls (p=0.08)), the “pulmonary artery pressure vs untreated hypoxic animals” value is on record as “significantly lower”. Also, in data set [1] (FIG. 4, L-citrulline treated hypoxic animals, significantly lower than untreated hypoxic (p-value of 0.001)), the “calculated pulmonary vascular resistance” value is given as 0.071±0.003. The “development of pulmonary hypertension” value in data set [1] (newborn piglets exposed to 10 days of chronic hypoxia, oral supplementation) is “ameliorates the development of pulmonary hypertension”. Moreover, the “Plasma Citrulline” value in data set [2] (90 minutes after administration of L-citrulline dose, N = 3) was 219 ± 36; in data set [2] (trough, approximately twelve hours after L-citrulline dose, N = 6), 161 ± 5. The “plasma L-citrulline level relative to untreated chronic hypoxic animals” value in data set [2] (ninety minutes after a dose, p=0.001) was “almost twice”. In addition, the “plasma arginine levels vs untreated hypoxic animals” value in data set [2] (regardless of the time the sample was drawn) is recorded as “not higher”. The “NOx- accumulation rate in lung perfusate vs untreated hypoxic animals” value with nitrite/nitrate (NOx-) is reported as “significantly higher”. Also, the “exhaled NO output vs untreated hypoxic animals” value in the data set on exhaled NO was “higher”.
